Results taken from ChEMBL document CHEMBL5506003, “Design and biological evaluation of dual tubulin/HDAC inhibitors based on millepachine for treatment of prostate cancer” (Eur J Med Chem, 2024).

Tests used:
[1] = system: MDA-MB-231; experiment: Cytotoxicity against human MDA-MB-231 cells incubated for 72 hrs by MTT assay; assay type: functional, cell-based; conditions: MDA-MB-231, 72 h
[2] = system: A549; experiment: Cytotoxicity against human A549 cells incubated for 72 hrs by MTT assay; conditions: A549, 72 h
[3] = system: PC-3; experiment: Cytotoxicity against human PC-3 cells incubated for 72 hrs by MTT assay; conditions: PC-3, 72 h
[4] = system: U-251; experiment: Cytotoxicity against human U-251 cells incubated for 72 hrs by MTT assay; conditions: U-251, 72 h
[5] = system: MCF7; experiment: Cytotoxicity against human MCF7 cells incubated for 72 hrs by MTT assay; conditions: MCF7, 72 h
[6] = molecular target: Histone deacetylase 1 (Homo sapiens, UniProt Q13547); experiment: Inhibition of HDAC1 in human HeLa nuclear extracts incubated for 30 mins by fluorescence based assay; assay type: cell-free
Chain of Histone deacetylase 1 (Q13547 whole entry): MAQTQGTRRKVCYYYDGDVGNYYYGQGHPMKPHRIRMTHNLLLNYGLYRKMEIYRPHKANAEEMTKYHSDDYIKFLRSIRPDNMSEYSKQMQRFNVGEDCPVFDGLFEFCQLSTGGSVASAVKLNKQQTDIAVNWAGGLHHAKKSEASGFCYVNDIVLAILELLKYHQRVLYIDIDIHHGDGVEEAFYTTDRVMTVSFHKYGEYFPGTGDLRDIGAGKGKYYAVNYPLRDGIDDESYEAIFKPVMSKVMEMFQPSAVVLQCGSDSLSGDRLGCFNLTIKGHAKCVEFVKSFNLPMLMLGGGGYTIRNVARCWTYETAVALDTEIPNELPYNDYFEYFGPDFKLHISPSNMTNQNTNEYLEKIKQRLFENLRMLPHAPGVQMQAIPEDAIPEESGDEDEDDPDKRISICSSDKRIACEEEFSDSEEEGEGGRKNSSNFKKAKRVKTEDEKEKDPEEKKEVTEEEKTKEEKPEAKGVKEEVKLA

[7] = molecular target: Histone deacetylase 2 (Homo sapiens, UniProt Q92769); experiment: Inhibition of HDAC2 in human HeLa nuclear extracts incubated for 30 mins by fluorescence based assay; assay type: cell-based
Chain of Histone deacetylase 2 (Q92769 whole entry): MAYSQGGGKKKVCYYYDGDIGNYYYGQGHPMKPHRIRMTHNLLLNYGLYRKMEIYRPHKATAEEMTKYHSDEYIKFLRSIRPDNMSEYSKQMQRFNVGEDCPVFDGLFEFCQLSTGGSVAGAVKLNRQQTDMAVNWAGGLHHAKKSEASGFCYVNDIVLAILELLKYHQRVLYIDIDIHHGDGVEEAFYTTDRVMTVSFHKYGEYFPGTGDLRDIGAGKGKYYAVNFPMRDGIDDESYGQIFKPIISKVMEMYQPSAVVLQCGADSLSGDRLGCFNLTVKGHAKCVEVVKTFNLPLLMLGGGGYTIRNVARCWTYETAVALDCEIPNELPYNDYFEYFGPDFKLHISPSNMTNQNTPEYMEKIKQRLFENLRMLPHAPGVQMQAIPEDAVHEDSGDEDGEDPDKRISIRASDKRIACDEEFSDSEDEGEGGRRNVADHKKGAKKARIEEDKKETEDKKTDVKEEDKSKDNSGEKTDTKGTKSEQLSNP

[8] = molecular target: T1, Protein deacetylase HDAC6 (Homo sapiens, UniProt Q9UBN7); experiment: Inhibition of HDAC6 in human HeLa nuclear extracts incubated for 30 mins by fluorescence based assay; assay type: cell-free
T1 sequence (Q9UBN7 whole entry): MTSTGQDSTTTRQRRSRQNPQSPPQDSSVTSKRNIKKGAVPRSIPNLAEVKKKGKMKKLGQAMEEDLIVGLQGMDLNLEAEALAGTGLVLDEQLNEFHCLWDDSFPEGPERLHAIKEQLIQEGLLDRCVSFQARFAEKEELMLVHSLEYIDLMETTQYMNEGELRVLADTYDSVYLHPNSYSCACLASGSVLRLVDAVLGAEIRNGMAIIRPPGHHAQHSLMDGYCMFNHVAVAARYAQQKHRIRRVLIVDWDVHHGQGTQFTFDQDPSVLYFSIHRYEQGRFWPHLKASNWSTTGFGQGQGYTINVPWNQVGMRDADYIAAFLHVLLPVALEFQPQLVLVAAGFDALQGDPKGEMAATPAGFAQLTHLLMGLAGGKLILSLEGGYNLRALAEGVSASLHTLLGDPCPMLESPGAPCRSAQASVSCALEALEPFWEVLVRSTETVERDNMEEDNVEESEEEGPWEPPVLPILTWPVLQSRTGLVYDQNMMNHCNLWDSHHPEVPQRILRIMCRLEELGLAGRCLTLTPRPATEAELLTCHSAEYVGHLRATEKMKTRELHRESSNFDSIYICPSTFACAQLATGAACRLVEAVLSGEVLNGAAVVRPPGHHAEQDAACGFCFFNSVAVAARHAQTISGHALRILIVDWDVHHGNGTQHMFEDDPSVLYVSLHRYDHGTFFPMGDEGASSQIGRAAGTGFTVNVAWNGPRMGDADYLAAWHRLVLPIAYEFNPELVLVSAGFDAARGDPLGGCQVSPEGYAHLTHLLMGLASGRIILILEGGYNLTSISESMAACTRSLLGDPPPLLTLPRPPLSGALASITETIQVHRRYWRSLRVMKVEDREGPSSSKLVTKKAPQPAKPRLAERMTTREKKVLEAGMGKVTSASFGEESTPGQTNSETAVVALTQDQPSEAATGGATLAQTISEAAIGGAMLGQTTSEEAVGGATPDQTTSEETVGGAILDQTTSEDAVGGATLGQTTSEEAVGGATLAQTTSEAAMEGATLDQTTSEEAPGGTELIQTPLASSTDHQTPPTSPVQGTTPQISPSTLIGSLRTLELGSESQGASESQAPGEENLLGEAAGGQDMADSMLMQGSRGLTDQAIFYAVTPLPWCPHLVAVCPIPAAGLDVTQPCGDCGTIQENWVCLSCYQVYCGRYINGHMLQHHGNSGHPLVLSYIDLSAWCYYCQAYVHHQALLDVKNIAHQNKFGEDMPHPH

[9] = molecular target: T2, Histone deacetylase 7 (Homo sapiens, UniProt Q8WUI4); experiment: Inhibition of HDAC7 in human HeLa nuclear extracts incubated for 30 mins by fluorescence based assay; assay type: cell-free
T2 sequence (Q8WUI4 whole entry): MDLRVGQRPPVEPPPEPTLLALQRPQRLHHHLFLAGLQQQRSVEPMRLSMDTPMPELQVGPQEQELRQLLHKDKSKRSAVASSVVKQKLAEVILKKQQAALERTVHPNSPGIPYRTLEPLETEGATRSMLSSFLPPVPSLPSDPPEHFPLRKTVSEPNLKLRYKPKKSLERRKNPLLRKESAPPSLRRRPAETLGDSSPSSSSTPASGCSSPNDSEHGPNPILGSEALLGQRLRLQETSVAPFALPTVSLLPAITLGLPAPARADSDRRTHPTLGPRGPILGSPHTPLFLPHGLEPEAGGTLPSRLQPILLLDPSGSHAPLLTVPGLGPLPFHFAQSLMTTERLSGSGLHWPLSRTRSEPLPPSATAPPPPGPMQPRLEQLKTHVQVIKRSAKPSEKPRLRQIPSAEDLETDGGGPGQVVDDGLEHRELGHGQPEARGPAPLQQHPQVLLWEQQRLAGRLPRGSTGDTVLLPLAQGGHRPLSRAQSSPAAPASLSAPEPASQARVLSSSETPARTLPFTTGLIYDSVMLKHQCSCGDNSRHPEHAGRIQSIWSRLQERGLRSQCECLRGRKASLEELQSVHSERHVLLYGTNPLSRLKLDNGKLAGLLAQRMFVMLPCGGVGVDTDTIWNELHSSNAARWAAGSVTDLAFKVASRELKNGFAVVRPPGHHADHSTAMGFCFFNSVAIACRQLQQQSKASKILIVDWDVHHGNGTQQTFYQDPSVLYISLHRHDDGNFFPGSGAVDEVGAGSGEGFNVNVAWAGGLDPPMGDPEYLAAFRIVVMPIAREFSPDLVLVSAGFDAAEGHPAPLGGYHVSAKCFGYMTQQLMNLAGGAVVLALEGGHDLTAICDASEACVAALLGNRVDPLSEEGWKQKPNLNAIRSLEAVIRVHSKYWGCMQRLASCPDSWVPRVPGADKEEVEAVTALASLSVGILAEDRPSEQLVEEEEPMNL

[10] = system: PC-3; experiment: Antitumor activity against human PC-3 cells xenografted in BALB/c nude mouse assessed as tumor growth inhibition at 5 mg/kg, iv administered every 2 days and measured after 3 weeks; assay type: functional; conditions: PC-3, 504 h, read-out: TGI
[11] = Toxicity in BALB/c nude mouse xenografted with human PC-3 cells assessed as body weight loss at 5 mg/kg, iv administered every 2 days and measured after 3 weeks; assay type: organism-based; conditions: in vivo, 504 h
[12] = Toxicity in BALB/c nude mouse xenografted with human PC-3 cells assessed as mortality at 5 mg/kg, iv administered every 2 days and measured after 3 weeks; assay type: organism-based; conditions: in vivo, 504 h

| IC50 [6] [µM] | IC50 [7] [µM] | IC50 [8] [µM] | IC50 [9] [µM] | Compound | IC50 [1] [µM] | IC50 [2] [µM] | IC50 [3] [µM] | IC50 [4] [µM] | IC50 [5] [µM] | inhibition in vivo at 5 mg/kg [10] [%] | Activity [11] | Activity [12] |
| --- | --- | --- | --- | --- | --- | --- | --- | --- | --- | --- | --- | --- |
| – | – | – | – | COc1ccc(/C=C/C(=O)c2ccc(OC)c3c2OC(C)(C)C=C3)cc1 [MILLEPACHINE] | 2.47 | > 10 | 1.13 | 3.72 | 4.37 | – | – | – |
| – | – | – | – | COc1ccc(/C=C/C(=O)c2ccc(Br)c3c2OC(C)(C)C=C3)cc1NCC(=O)Nc1ccccc1N | 4.05 | > 10 | 1.23 | 3.66 | 4.06 | – | – | – |
| 0.87 | 1.43 | 3.35 | 8.3 | COc1ccc(/C=C/C(=O)c2ccc(Br)c3c2OC(C)(C)C=C3)cc1NCC(=O)NO | 0.16 | 0.8 | 0.032 | 0.14 | 0.19 | – | – | – |
| – | – | – | – | COc1ccc(/C=C/C(=O)c2ccc(OC)c3c2OC(C)(C)C=C3)cc1OCC(=O)NO | 1.71 | 2.93 | 0.23 | 0.48 | 0.59 | – | – | – |
| – | – | – | – | COc1ccc(/C=C/C(=O)c2ccc(OC)c3c2OC(C)(C)C=C3)cc1NCC(=O)Nc1ccccc1N | 4.97 | 9.78 | 3.1 | 4.19 | 4.33 | – | – | – |
| – | – | – | – | COc1ccc(/C=C/C(=O)c2ccc(OC)c3c2OC(C)(C)C=C3)cc1OCCCCCCC(=O)NO | > 10 | > 10 | > 10 | > 10 | 10 | – | – | – |
| – | – | – | – | COc1ccc(/C=C/C(=O)c2ccc(OC)c3c2OC(C)(C)C=C3)cc1OCCCCCC(=O)NO | > 10 | 6.08 | 5.74 | > 10 | 6.53 | – | – | – |
| – | – | – | – | COc1ccc(/C=C/C(=O)c2ccc(Cl)c3c2OC(C)(C)C=C3)cc1OCC(=O)NO | 0.5 | 2.56 | 0.22 | 1.76 | 1.45 | – | – | – |
| 0.58 | 0.83 | 1.21 | 5.42 | COc1ccc(/C=C/C(=O)c2ccc(Br)c3c2OC(C)(C)C=C3)cc1OCC(=O)NO | 0.47 | 1.31 | 0.72 | 0.49 | 1.82 | – | – | – |
| – | – | – | – | COc1ccc(/C=C/C(=O)c2ccc(OC)c3c2OC(C)(C)C=C3)cc1NCCCCCCC(=O)Nc1ccccc1N | > 10 | > 10 | 6.61 | > 10 | > 10 | – | – | – |
| – | – | – | – | COc1ccc(/C=C/C(=O)c2ccc(OC)c3c2OC(C)(C)C=C3)cc1NCCCCCCC(=O)NO | > 10 | > 10 | 7.23 | > 10 | > 10 | – | – | – |
| – | – | – | – | COc1ccc(/C=C/C(=O)c2ccc(OC)c3c2OC(C)(C)C=C3)cc1NCCCCCC(=O)Nc1ccccc1N | > 10 | > 10 | 5.16 | > 10 | > 10 | – | – | – |
| – | – | – | – | COc1ccc(/C=C/C(=O)c2ccc(Br)c3c2OC(C)(C)C=C3)cc1OCC(=O)Nc1ccccc1N | 4.75 | 8.2 | 3.75 | 6.68 | 6.11 | – | – | – |
| – | – | – | – | COc1ccc(/C=C/C(=O)c2ccc(OC)c3c2OC(C)(C)C=C3)cc1OCCCCC(=O)Nc1ccccc1N | > 10 | > 10 | 6.44 | > 10 | 8.49 | – | – | – |
| – | – | – | – | COc1ccc(/C=C/C(=O)c2ccc(OC)c3c2OC(C)(C)C=C3)cc1NCCCCCC(=O)NO | > 10 | > 10 | > 10 | > 10 | > 10 | – | – | – |
| – | – | – | – | COc1ccc(/C=C/C(=O)c2ccc(Cl)c3c2OC(C)(C)C=C3)cc1NCC(=O)Nc1ccccc1N | 3 | > 10 | 2.65 | 4.72 | 4.77 | – | – | – |
| – | – | – | – | COc1ccc(/C=C/C(=O)c2ccc(OC)c3c2OC(C)(C)C=C3)cc1OCCCC(=O)Nc1ccccc1N | > 10 | > 10 | > 10 | 7.52 | 9.47 | – | – | – |
| – | – | – | – | COc1ccc(/C=C/C(=O)c2ccc(OC)c3c2OC(C)(C)C=C3)cc1OCCCCCCC(=O)Nc1ccccc1N | 3.89 | > 10 | > 10 | > 10 | > 10 | – | – | – |
| – | – | – | – | COc1ccc(/C=C/C(=O)c2ccc(OC)c3c2OC(C)(C)C=C3)cc1OCC(=O)Nc1ccccc1N | > 10 | > 10 | > 10 | 7.6 | 8.72 | – | – | – |
| – | – | – | – | COc1ccc(/C=C/C(=O)c2ccc(OC)c3c2OC(C)(C)C=C3)cc1OCCCC(=O)NO | 8.71 | 5.53 | 6.15 | 3.68 | 5.68 | – | – | – |
| – | – | – | – | COc1ccc(/C=C/C(=O)c2ccc(Cl)c3c2OC(C)(C)C=C3)cc1OCC(=O)Nc1ccccc1N | 3.45 | 7.72 | 4.69 | 9.23 | 9.14 | – | – | – |
| – | – | – | – | COc1ccc(/C=C/C(=O)c2ccc(OC)c3c2OC(C)(C)C=C3)cc1OCCCCCC(=O)Nc1ccccc1N | > 10 | > 10 | 5.86 | > 10 | > 10 | – | – | – |
| – | – | – | – | COc1ccc(/C=C/C(=O)c2ccc(OC)c3c2OC(C)(C)C=C3)cc1OCCCCC(=O)NO | 4.69 | 7.13 | 4.84 | > 10 | > 10 | – | – | – |
| – | – | – | – | CC(=O)O[C@H]1C(=O)[C@@]2(C)[C@H]([C@H](OC(=O)c3ccccc3)[C@]3(O)C[C@H](OC(=O)[C@H](O)[C@@H](NC(=O)c4ccccc4)c4ccccc4)C(C)=C1C3(C)C)[C@]1(OC(C)=O)CO[C@@H]1C[C@@H]2O [PACLITAXEL] | – | – | – | – | – | 91.3 | Toxic | Toxic |
| – | – | – | – | COc1ccc(/C=C/C(=O)c2ccc(Cl)c3c2OC(C)(C)C=C3)cc1NCC(=O)NO | 0.5 | 1.67 | 0.052 | 0.25 | 0.48 | – | – | – |
